Experimental data published in paper PMC3057119 (Bioorganic & medicinal chemistry letters, 2011).

System: p53-dependent luciferase reporter in U2OS cells
Test: p53-dependent luciferase reporter activation
Format: cell-based
Conditions: U2OS cells stably expressing p53-dependent luciferase reporter, 5 μM

COc1ccc(C2=N[C@@H](c3ccc(Cl)cc3)[C@@H](c3ccc(Cl)cc3)N2C(=O)N2CCNC(=O)C2)c(OC(C)C)c1 [Nutlin-3, nutlin-3]
increase in luciferase activation: 4 fold
